The term IC50 denotes the concentration that gives 50% inhibition. A higher IC50 goes with lower potency.

Consider 20 molecules from patent EP1268431B1 (Wyeth, priority 2000, dated 2001).

Assay [1] relates to human adenocarcinoma cell line CaCo-2. Put plainly: Cell Based Screen for Inhibitors of Raf Kinase, CaCo-2 cells. The settings on record: CaCo-2, four days, SRB. The procedure:
(§1) • Cell Lines: Human adenocarcinoma cell line LoVo which is known to be growth inhibited by low nM concentrations of a reference standard inhibitor of Ras and human adenocarcinoma cell line CaCo-2, which is known to be growth resistant to the same reference compound. • Cell Media: RPMI 1640 with 10% Fetal Bovine Serum supplemented with L-glutamine and Pennicilin/Streptomycin. • Compounds: Supplied usually as a 10 mM stock in 100% DMSO. • Normal Saline: 150 mM NaCl • Trichloroacetic Acid (TCA): 50% (w/v) in water • Sulforhodamine B (SRB): 0.4% (w/v) in 1% Acetic Acid • Tris Base: 10 mM in water
(§2) Cells are plated at 2000 cells per well for cell line LoVo and 1500 cells for cell line CaCo-2 in 96 well plates. Cells are plated in media (200 µl) and allowed to adhere overnight at 37° C. At 24 hours post plating, compounds are added directly at a volume of 0.5 µl. For the qualitative screen (compounds screened at 25 µM) compound is added directly to cells. For the quantitative screen, compound is first diluted in DMSO to generate concentrations of compound or reference standard of: 1, 5, 10 and 25 µM. It is advisable to make the dilutions in an identical 96 well plate so that compounds may be added using a multichannel micropipettor set at 0.5 µl. The cells are then incubated for four days after which the media is removed using a 12 well manifold by first tipping the plate forward at a 45 degree angle and then inserting the manifold in an upright orientation to prevent the tips of the manifold from disturbing cells at the bottom of the plate. 200 µl of normal saline is then added to each well using an 8 well multichannel pipettor, followed by the careful addition of 50 µl of 50% TCA. The plates are then incubated for 2 hours at 4 ° C, after which the supernatant is removed using the same technique as above and the plated washed twice with 200 µl water. The plates are then air dried and 50 µl of SRB stock solution is carefully added so that the entire bottom of each well is covered. This again may be used using an 8 well multichannel pipettor. The SRB is incubated with fixed cells for 15 minutes at room temperature after which the SRB is removed with the manifold as described above and the plates washed twice with 350 µl of 1% acetic acid per well each time.The plates are then air dried after which the bound SRB is released from protein by the addition of 200 µl of Tris base. Resolubilizing the SRB is aided by placing the plates on a rotator for 15-30 minutes. The absorbance of each well is determined at 550 or 562 nm using a microtiter plate reader.
(§3) Each compound or dilution thereof is performed in triplicate. Outliers are identified by visual inspection of the data. Each plate should have a "0" control (vehicle only).
(§4) Quantitative Assay: A standard curve is constructed by plotting the concentration of compound against the average absorbance calculated at that concentration. A curve is plotted and the concentration at which the curve passes through the 50% the absorbance mark seen in the "0" control well is the IC50 calculated for that compound. […]

In assay [2] the test system is Human adenocarcinoma cell line LoVo. Put plainly: Cell Based Screen for Inhibitors of Raf Kinase, LoVo cells. The note with it: four days, SRB. The procedure:
as §1, §2, §3, §4

For `CCN1CCN(Cc2ccc(-c3ccc4c(Nc5ccc(Sc6nccn6C)c(Cl)c5)c(C#N)cnc4c3)cn2)CC1` [Example 220, 4-({3-chloro-4-[(1-methyl-1H-imidazol-2-yl)sulfanyl]phenyl}amino)-7-{6-[(4-ethyl-1-piperazinyl)methyl]-3-pyridinyl}-3-quinolinecarbonitrile], the IC50 in assay [1] (Homo sapiens, Caco-2, 96 h) is more than 1000 nM; in assay [2] (Homo sapiens, 96 h), 7.7 nM.
On the same counts, the results for `Cn1ccnc1Sc1ccc(Nc2c(C#N)cnc3cc(-c4ccc(CN5CCN(CCO)CC5)s4)ccc23)cc1Cl` [Example 161, 4-{3-chloro-4-[(1-methyl-1H-imidazol-2-yl)sulfanyl]anilino}-7-(5-{[4-(2-hydroxyethyl)-1-piperazinyl]methyl}-2-thienyl)-3-quinolinecarbonitrile] are more than 1000 nM and 5.6 nM.
Take `Cn1ccnc1Sc1ccc(Nc2c(C#N)cnc3cc(-c4ccc(CN5CCC(O)CC5)s4)ccc23)cc1Cl` [Example 159, 4-{3-chloro-4-[(1-methyl-1H-imidazol-2-yl)sulfanyl]anilino}-7-{5-[(4-hydroxy-1-piperidinyl)methyl]-2-thienyl}-3-quinolinecarbonitrile]: the IC50 was found to be 710 nM in assay [1] (Homo sapiens, Caco-2, 96 h) and 4.2 nM in assay [2] (Homo sapiens, 96 h).
On the same counts, the results for `CN1CCN(Cc2ccc(-c3ccc4c(Nc5ccc(Sc6nccn6C)c(Cl)c5)c(C#N)cnc4c3)nc2)CC1` [Example 189, 4-{3-chloro-4-[(1-methyl-1H-imidazol-2-yl)sulanyl]anilino}-7-{5-[(4-methyl-1-piperazinyl)methyl]-2-pyridinyl}-3-quinolinecarbonitrile] are 1250 nM and 6 nM.
Take `Cn1ccnc1Sc1ccc(Nc2c(C#N)cnc3cc(-c4ccc(CN5CCOCC5)c(CN5CCOCC5)c4)ccc23)cc1Cl` [Example 35, 7-[3,4-Bis(4-morpholinylmethyl)phenyl]-4-[3-chloro-4-[(1-methyl-1H-imidazol-2-yl)sulfanyl]anilino}-3-quinolinecarbonitrile]: the IC50 was more than 10000 nM in assay [1] (Homo sapiens, Caco-2, 96 h); less than 5 nM in assay [2] (Homo sapiens, 96 h); 6 nM in assay [2].
On to `CC(C)N1CCN(Cc2ccc(-c3ccc4c(Nc5ccc(Sc6nccn6C)c(Cl)c5)c(C#N)cnc4c3)cc2)CC1` [Example 98, 4-({3-Chloro-4-[(1-methyl-1H-imidazol-2-yl)sulfanyl]phenyl}amino)-7-{4-[(4-isopropyl-1-piperazinyl)methyl]phenyl}-3-quinolinecarbonitrile], for which the IC50 stood at 640 nM in assay [1] (Homo sapiens, Caco-2, 96 h) and 7.1 nM in assay [2] (Homo sapiens, 96 h).
Regarding `Cn1ccnc1Sc1ccc(Nc2c(C#N)cnc3cc(-c4ccc(CN5CCCCC5)s4)ccc23)cc1Cl` [Example 160, 4-{3-chloro-4-[(1-methyl-1H-imidazol-2-yl)sulfanyl]anilino}-7-[5-(1-piperidinylmethyl)-2-thienyl]-3-quinolinecarbonitrile], the IC50 was determined as 620 nM in assay [1] (Homo sapiens, Caco-2, 96 h) and 4.1 nM in assay [2] (Homo sapiens, 96 h).
The matching figures for `CCN1CCN(Cc2ccnc(-c3ccc4c(Nc5ccc(Sc6nccn6C)c(Cl)c5)c(C#N)cnc4c3)c2)CC1` [Example 205, 4-({3-chloro-4-[(1-methyl-1H-imidazol-2-yl)sulfanyl]phenyl}amino)-7-{4-[(4-ethyl-1-piperazinyl)methyl]-2-pyridinyl}-3-quinolinecarbonitrile]: 940 nM and 275 nM.
Turning to `CN1CCN(c2ccc(-c3ccc4c(Nc5ccc(Sc6nccn6C)c(Cl)c5)c(C#N)cnc4c3)cn2)CC1` [Example 196, 4-{3-chloro-4-[(1-methyl-1H-imidazol-2-yl)sulfanyl]anilino}-7-[6-(4-methyl-1-piperazinyl)-3-pyridinyl]-3-quinolinecarbonitrile], the IC50 in assay [1] was 550 nM; in assay [1] (Homo sapiens, Caco-2, 96 h), 1100 nM; in assay [2] (Homo sapiens, 96 h), less than 5 nM; in assay [2], 2.9 nM.
With `N#Cc1cnc2cc(-c3csc(CN4CCOCC4)c3)ccc2c1Nc1ccc(Oc2ccccc2)cc1` [Example 7, 7-[5-(4-Morpholinylmethyl)-3-thienyl]-4-(4-phenoxyanilino)-3-quinolinecarbonitrile], the IC50 in assay [1] (Homo sapiens, Caco-2, 96 h) was more than 10000 nM; in assay [2] (Homo sapiens, 96 h), 3700 nM.
The matching figures for `CN(CCO)c1ccc(-c2ccc3c(Nc4ccc(Sc5nccn5C)c(Cl)c4)c(C#N)cnc3c2)cn1` [Example 216, 4-({3-chloro-4-[(1-methyl-1H-imidazol-2-yl)sulfanyl]phenyl}amino)-7-{6-[(2-hydroxyethyl)(methyl)amino]-3-pyridinyl}-3-quinolinecarbonitrile]: more than 1000 nM and 7 nM.
Regarding `COc1cc2c(Nc3ccc(Sc4nccn4C)c(Cl)c3)c(C#N)cnc2cc1-c1csc(CN2CCOCC2)c1` [Example 125, 4-{3-Chloro-4-[(1-methyl-1H-imidazol-2-yl)sulfanyl]anilino}-6-methoxy-7-[5-(4-morpholinylmethyl)-3-thienyl]-3-quinolinecarbonitrile], the IC50 in assay [1] is 2800 nM; in assay [1] (Homo sapiens, Caco-2, 96 h), 1900 nM; in assay [2] (Homo sapiens, 96 h) it was 20 nM; in assay [2], 15 nM.
For the molecule `Cn1ccnc1Sc1ccc(Nc2c(C#N)cnc3cc(-c4cc(CN5CCOCC5)ccn4)ccc23)cc1Cl` [Example 203, 4-({3-chloro-4-[(1-methyl-1H-imidazol-2-yl)sulfanyl]phenyl}amino)-7-[4-(4-morpholinylmethyl)-2-pyridinyl]-3-quinolinecarbonitrile], the IC50 is more than 1000 nM in assay [1] (Homo sapiens, Caco-2, 96 h) and 9.7 nM in assay [2] (Homo sapiens, 96 h).
In the case of `Cn1ccnc1Sc1ccc(Nc2c(C#N)cnc3cc(-c4ccc(CN5CCN(CCO)CC5)cn4)ccc23)cc1Cl` [Example 217, 4-({3-chloro-4-[(1-methyl-1H-imidazol-2-yl)sulfanyl]phenyl}amino)-7-(5-{[4-(2-hydroxyethyl)-1-piperazinyl]methyl}-2-pyridinyl)-3-quinolinecarbonitrile], the IC50 in assay [1] (Homo sapiens, Caco-2, 96 h) was more than 1000 nM; in assay [2] (Homo sapiens, 96 h), 36 nM.
On the same counts, the results for `Cn1ccnc1Sc1ccc(Nc2c(C#N)cnc3cc(-c4ccc(CN5CCOCC5)nc4)ccc23)cc1Cl` [Example 109, 4-({3-Chloro-4-[(1-methyl-1H-imidazol-2-yl)sulfanyl]phenyl}amino)-7-[6-(4-morpholinylmethyl)-3-pyridinyl]-3-quinolinecarbonitrile] are 980 nM and 6.8 nM.
On the same counts, the results for `Cn1ccnc1Sc1ccc(Nc2c(C#N)cnc3cc(-c4ccc(CN5CCSCC5)cn4)ccc23)cc1Cl` [Example 219] are more than 1000 nM and 15 nM.
On the same counts, the results for `CN(CCO)Cc1ccc(-c2ccc3c(Nc4ccc(Sc5nccn5C)c(Cl)c4)c(C#N)cnc3c2)nc1` [Example 106, 4-({3-Chloro-4-[(1-methyl-1H-imidazol-2-yl)sulfanyl]phenyl}amino)-7-(5-{[(2-hydroxyethyl)(methyl)amino]methyl}-2-pyridinyl)-3-quinolinecarbonitrile] are more than 1000 nM and 6.4 nM.
In the case of `Cn1ccnc1Sc1ccc(Nc2c(C#N)cnc3cc(-c4ccc(N5CCSCC5)nc4)ccc23)cc1Cl` [Example 110, 4-({3-Chloro-4-[(1-methyl-1H-imidazol-2-yl)sulfanyl]phenyl}amino)-7-[6-(4-thiomorpholinyl)-3-pyridinyl]-3-quinolinecarbonitrile], the IC50 in assay [1] (Homo sapiens, Caco-2, 96 h) was more than 1000 nM; in assay [2] (Homo sapiens, 96 h) it was 10 nM.
For `Cn1ccnc1Sc1ccc(Nc2c(C#N)cnc3cc(-c4ccc(CN5CCC(O)CC5)cc4)ccc23)cc1Cl` [Example 134, 4-{3-chloro-4-[(1-methyl-1H-imidazol-2-yl)sulfanyl]anilino}-7-{4-[(4-hydroxy-1-piperidinyl)methyl]phenyl}-3-quinolinecarbonitrile], the IC50 in assay [1] (Homo sapiens, Caco-2, 96 h) is more than 1000 nM; in assay [2] (Homo sapiens, 96 h), 4.6 nM.
In the case of `Cn1ccnc1Sc1ccc(Nc2c(C#N)cnc3cc(-c4ccc(N5CCN(CCO)CC5)nc4)ccc23)cc1Cl` [Example 215, 4-({3-chloro-4-[(1-methyl-1H-imidazol-2-yl)sulfanyl]phenyl}amino)-7-{6-[4-(2-hydroxyethyl)-1-piperazinyl]-3-pyridinyl}-3-quinolinecarbonitrile], the IC50 in assay [1] (Homo sapiens, Caco-2, 96 h) is more than 1000 nM; in assay [2] (Homo sapiens, 96 h), 3.5 nM.
